In patent US20120245229A1, “METHOD FOR TREATING NEUROPATHIC PAIN” (priority 2009, published 2012):

Assays:
Format in all cases: in vivo, mice
[1] = system: formalin-induced inflammatory pain; assay: Formalin-induced spontaneous inflammatory pain (licking/flinching duration)
Protocol: (§1) Animals and pain models. Adult CD1 mice (male, 25-32 g) were used for most experiments. Knockout mice were used lacking TNFR1/II (Tnfrsf1a/1b^−/−) and TRPV1 (Trpv1^−/−) and C57BL/6 wild-type control mice, all from Jackson, for some experiments. All animal procedures performed in this study were approved by the Harvard Medical Area Standing Committee on Animals. 20 μl of diluted formalin (5%), carrageenan (CRG, 1%), or complete Freund's adjuvant (CFA) were injected into the plantar surface of a hindpaw to produce acute, persistent, or chronic inflammatory pain, respectively. Postoperative pain was also produced through hindpaw incision^36 and neuropathic pain by ligation of the spinal nerve^37.
Reagents and administration. RvE1 and RvD1 were suspended in 1% or 10% ethanol as vehicle for investigating acute (<1 h) and persistent (1-6 h) effects of resolvins on inflammatory pain. The reagents (10 μl) were delivered to the cerebral spinal fluid via intrathecal injection made by a spinal cord puncture between the L5 and L6 level with a 30G needle^38.
Behavioral analysis. Mice were habituated in the testing environment for two days and performed behavioral testing in a blinded manner. Formalin-evoked spontaneous inflammatory pain was assessed by measuring duration (seconds) animals spent on licking/flinching the affected paws every 5 min for 45 min. Capsaicin-induced spontaneous pain was aslo assessed for 10 min. For testing mechanical sensitivity, mice were put in boxes on an elevated metal mesh floor and stimulated hindpaw with a series of von Frey hairs with logarithmically incrementing stiffness (0.02-2.56 grams, Stoelting), presented perpendicular to the plantar surface. It was determined the 50% paw withdrawal threshold using Dixon's up-down method^40. For testing heat sensitivity, mice were placed in plastic boxes and tested heat sensitivity using Hargreaves radiant heat apparatus (IITC Life Science Inc.). The basal paw withdrawal latency was adjusted to 9-12 seconds and set a cut-off of 20 seconds to prevent tissue damage. The percent maximal possible antinociceptive effect (% M.P.E) was calculated using the equation % M.P.E.=[(PL−BL2)/(BL1−BL2)]×100. BL1, baseline latency before inflammation; BL2, baseline latency after inflammation but before drug injection; PL, latency post drug injection.
Intrathecal injection. To avoid systemic effects of drugs and target spinal mechanisms, drugs were delivered into cerebral spinal fluid (CSF) space around lumbosacral spinal cord via intrathecal (i.t.) administration. Spinal cord puncture was made with a 30G needle between the L5 and L6 level to deliver the reagents (10 μl) to the cerebral spinal fluid (Hylden and Wilcox, 1980)^5. […] In addition to spinal cord cells, intrathecal drug administration also affects DRG cells^6,7.
Intrathecal injection: DHA and EPA (Cayman Chemical, 10 μg, prepared in 1% ethanol), COX-2 inhibitor NS-398 (Sigma, 0.1, 1, and 10 μg, prepared in 1% ethanol in FIG. 1a-c or in 10% ethanol in FIG. 2c), morphine (Sigma, 10 to 500 ng, prepared in 1% ethanol in FIG. 1a-c), naloxone (Sigma, 2 μg, prepared in 1% ethanol), pertussis toxin (Tocris Bioscience, 0.2 μg, prepared in saline), chemerin (R & D Systems, 0.45 to 100 ng, prepared in 1% ethanol), TNF-α (R & D Systems, 20 ng, prepared in saline), and capsaicin (Sigma, 0.5 μg in 10 μl, prepared in 1% DMSO) were delivered. To examine whether pretreatment of RvE1 attenuated TNF-α-induced persistent hyperalgesia at 1, 3, and 24 h, RvE1 and TNF-α were mixed and injected at the same time (FIG. 3c). To examine whether pretreatment of RvE1 attenuates capsaicin-induced acute spontaneous pain, RvE1 and capsaicin were mixed and injected at the same time (FIG. 3f).

[2] = system: CFA-induced mechanical allodynia; assay: CFA-induced mechanical allodynia (von Frey paw withdrawal threshold); settings: intrathecal RvE1 3-100 ng, 3 d after CFA injection
Protocol: as §1
Behavioral analysis. Mice were habituated in the testing environment for two days and performed behavioral testing in a blinded manner. Formalin-evoked spontaneous inflammatory pain was assessed by measuring duration (seconds) animals spent on licking/flinching the affected paws every 5 min for 45 min. Capsaicin-induced spontaneous pain was aslo assessed for 10 min. […] It was determined the 50% paw withdrawal threshold using Dixon's up-down method^40. […] The percent maximal possible antinociceptive effect (% M.P.E) was calculated using the equation % M.P.E.=[(PL−BL2)/(BL1−BL2)]×100. […]

[3] = system: formalin-induced inflammatory pain; assay: Formalin-induced spontaneous inflammatory pain (licking/flinching duration); settings: intraplantar RvE1 20 ng, 10 min before intraplantar formalin

CC[C@@H](O)/C=C/C=C\C[C@@H](O)/C=C/C=C/C=C\[C@@H](O)CCCC(=O)O [RvE1, 5S,12R,18R-trihydroxyeicosapentaenoic acid]
effective dose range compared with morphine and NS-398, formalin 2nd phase ([1]; intrathecal, dose response curve FIG. 1c): much lower than that of either morphine or the COX-2 inhibitor NS-398
formalin-induced pain behavior, 1st phase ([1]; preemptive intrathecal injection, RvE1 0.3 and 1.0 ng): not the 1st phase
formalin-induced pain behavior, 2nd phase ([1]; preemptive intrathecal injection, RvE1 0.3 and 1.0 ng, morphine 10 to 500 ng, NS-398 0.1, 1, and 10 μg, chemerin 0.45 to 100 ng): reduced
CFA-induced mechanical allodynia [2]: reduces CFA-induced mechanical allodynia in a dose-dependent manner
formalin-evoked acute pain [3]: rapidly attenuated
